Measurements reported in PubChem BioAssay AID2060484 (Molecular Pharmacology Branch, DTP, NCI, 2025).
Values joined by “and” are separate entries in the source; they are usually repeats but may differ in a detail not shown here. Identical values can stand only once.

System: SUM149PT spheroids with HUVEC/MSC, viability
Assay: Anticancer human tumor SUM149PT cell line growth inhibition [GQUAD];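 also: spheroids exposed to drugs for seven days before readout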;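 as to viability, T/C: percent viability relative to DMSO vehicle control taken as 100%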
Conditions: for viability, T/C: stronger effect = lower value
Source text: DNA G-quadruplex Stabilizer Agents in Combinations in Complex Spheroids
A high-throughput screen of multi-cell type tumor spheroids was designed to identify active combinations of DNA G-quadruplex stabilizer agents and targeted small molecules. Complex spheroids include a stromal component modeled by human endothelial cells (HUVEC) and fibroblasts modeled by human mesenchymal stem cells (MSCs). The concentration ranges selected for each drug and investigational agent were based upon clinically achievable concentrations if the clinical Cmax of the agent was known.
Compounds. The drugs and investigational agents: pidnarulex (CX-5461; NSC782164), APTO-253 (NSC789042), BRACO-19 (NSC847499), peposertib (NSC802822), ceralasertib (NSC780249), elimusertib (NSC800525), camonsertib (NSC841442), AZD-1390 (NSC803789), olaparib (NSC753686), talazoparib (NSC767125), ART-558 (NSC835418), sotorasib (NSC818433), MRTX-1133 (NSC836407), SN-38 (NSC673596), topotecan (NSC609699), etoposide (NSC141540), doxorubicin (NSC123127), gemcitabine (NSC613327), 5-fluorouracil (NSC19893), paclitaxel (NSC125973), vemurafenib (NSC761431), panobinostat (NSC761190), R-306465 (JNJ-16241199; NSC773264), adavosertib (NSC754352), TP-3654 (NSC805149), carboplatin (NSC241240), KSQ-4279 (NSC840948), and staurosporine (NSC755774) were obtained from the National Cancer Institute (NCI) Developmental Therapeutics Program Chemical Repository (34). The FDA-approved anticancer drug set is available from the NCI Developmental Therapeutics Program. […] The stock solutions were prepared in dimethyl sulfoxide (DMSO, Sigma-Aldrich, St. Louis, MO, cat. D2650) at 800-fold the tested concentration and stored at -70 degrees C prior to their use. All drugs and investigational agents were tested over a range starting from a high concentration at or near the clinical Cmax and decreasing in half-log increments. If the clinical Cmax for an agent had not been determined, the highest concentration tested was 10 microM.
2.3 Cell Culture. All cells were maintained in an incubator at 37 degrees C and 5% CO2 with 95% humidity. The PDC lines were cultured according to standard operating procedures established by the NCI PDMR. All PDCs were thawed and cultured in Matrigel-coated flasks prepared with a working solution of 1X Ham's F-12 nutrient mix, without supplementation (Invitrogen, cat. 11765054), 100 U/mL penicillin-streptomycin (Invitrogen, cat. 15140122), and 2.5% Matrigel (Corning Inc., cat. 354248) for the first three passages. The 857933-349-R-J2-PDC line was cultured in 6C/Colon 1B media, which includes advanced DMEM/F-12 (Thermo Fisher Scientific, cat. 12634028), 10 mM HEPES (Thermo Fisher Scientific, cat. 15630080), 1X GlutaMAX supplement (Thermo Fisher Scientific, cat. 35050061), 0.1 mg/mL primocin (InvivoGen, cat. ant-pm-2), 10% defined fetal bovine serum, heat inactivated (HyClone Laboratories Inc., cat. SH30070.03HI), 50% L-WRN conditioned media (ATCC, cat. CRL-3276), 1.25 mM N-Acetyl-L-cysteine (Sigma-Aldrich, cat. A9165), 10 mM nicotinamide (Sigma-Aldrich, cat. N0636), 1X B-27 supplement (Thermo Fisher Scientific, cat. 17504044), 1X N-2 supplement (Thermo Fisher Scientific, cat. 17502048), 10 microM Y-27632 dihydrochloride (Tocris Bioscience, cat. 1254), and 50 ng/mL human EGF recombinant protein (Thermo Fisher Scientific, cat. PHG0311). The 485176-168-R4-J1-PDC line was cultured in Panc media, which includes all 6C/Colon 1B media components plus 100 ng/mL human FGF-10 (Thermo Fisher Scientific, cat. 100-26), 500 nM SB-431542 (Selleckchem, cat. S1067), and gastrin (Tocris, cat. 3006).
[…]

[1] = curve of first compound, second compound 0.0316 µM
[2] = curve of first compound, second compound 0.1 µM
[3] = curve of first compound, second compound 0.316 µM
[4] = curve of first compound, second compound 1 µM
[5] = curve of first compound, second compound 3.16 µM
[6] = curve of first compound, second compound 10 µM
[7] = second compound 0.0316 µM, first compound 0.0316 µM
[8] = second compound 0.0316 µM, first compound 0.1 µM
[9] = second compound 0.0316 µM, first compound 0.316 µM
[10] = second compound 0.0316 µM, first compound 1 µM
[11] = second compound 0.0316 µM, first compound 3.16 µM
[12] = second compound 0.0316 µM, first compound 10 µM
[13] = second compound 0.1 µM, first compound 0.0316 µM
[14] = second compound 0.1 µM, first compound 0.1 µM
[15] = second compound 0.1 µM, first compound 0.316 µM
[16] = second compound 0.1 µM, first compound 1 µM
[17] = second compound 0.1 µM, first compound 3.16 µM
[18] = second compound 0.1 µM, first compound 10 µM
[19] = second compound 0.316 µM, first compound 0.0316 µM
[20] = second compound 0.316 µM, first compound 0.1 µM
[21] = second compound 0.316 µM, first compound 0.316 µM
[22] = second compound 0.316 µM, first compound 1 µM
[23] = second compound 0.316 µM, first compound 3.16 µM
[24] = second compound 0.316 µM, first compound 10 µM
[25] = second compound 1 µM, first compound 0.0316 µM
[26] = second compound 1 µM, first compound 0.1 µM
[27] = second compound 1 µM, first compound 0.316 µM
[28] = second compound 1 µM, first compound 1 µM
[29] = second compound 1 µM, first compound 3.16 µM
[30] = second compound 1 µM, first compound 10 µM
[31] = second compound 3.16 µM, first compound 0.0316 µM
[32] = second compound 3.16 µM, first compound 0.1 µM
[33] = second compound 3.16 µM, first compound 0.316 µM
[34] = second compound 3.16 µM, first compound 1 µM
[35] = second compound 3.16 µM, first compound 3.16 µM
[36] = second compound 3.16 µM, first compound 10 µM
[37] = second compound 10 µM, first compound 0.0316 µM
[38] = second compound 10 µM, first compound 0.1 µM
[39] = second compound 10 µM, first compound 0.316 µM
[40] = second compound 10 µM, first compound 1 µM
[41] = second compound 10 µM, first compound 3.16 µM
[42] = second compound 10 µM, first compound 10 µM

With `C=CC(=O)N1CCN(c2nc(=O)n(-c3c(C)ccnc3C(C)C)c3nc(-c4c(O)cccc4F)c(F)cc23)C(C)C1` (stereo not drawn) + Cc1[nH]c2ccc(F)cc2c1-c1nc2c3cccnc3c3ncccc3c2[nH]1 the IC50 [1] was > 10000 nM, the IC50 [2] was > 10000 nM and the IC50 [3] was > 10000 nM. For the same compound, the IC50 [4] was > 10000 nM, the IC50 [5] was > 10000 nM and the IC50 [6] was > 10000 nM. For the same compound, the viability, T/C [7] was 106%, the viability, T/C [8] was 91.6% and the viability, T/C [9] was 99.1%. For the same compound, the viability, T/C [10] was 108%, the viability, T/C [11] was 125% and the viability, T/C [12] was 117%. For the same compound, the viability, T/C [13] was 116%, the viability, T/C [14] was 93.8% and the viability, T/C [15] was 111%. For the same compound, the viability, T/C [16] was 116%, the viability, T/C [17] was 124% and the viability, T/C [18] was 114%. The viability, T/C [19] was 94.3%, the viability, T/C [20] was 107% and the viability, T/C [21] was 95.6%. For the same compound, the viability, T/C [22] was 112%, the viability, T/C [23] was 122% and the viability, T/C [24] was 108%. The viability, T/C [25] was 97.9%, the viability, T/C [26] was 97.6% and the viability, T/C [27] was 112%. The viability, T/C [28] was 118%, the viability, T/C [29] was 120% and the viability, T/C [30] was 114%. For the same compound, the viability, T/C [31] was 99.7%, the viability, T/C [32] was 86% and the viability, T/C [33] was 102%. It also gave a viability, T/C [34] of 109%, a viability, T/C [35] of 115% and a viability, T/C [36] of 114%. It also gave a viability, T/C [37] of 92%, a viability, T/C [38] of 80.6% and a viability, T/C [39] of 100%. It also gave a viability, T/C [40] of 106%, a viability, T/C [41] of 111% and a viability, T/C [42] of 114%.
In the case of `Nc1ccn(C2OC(CO)C(O)C2(F)F)c(=O)n1` (stereo not drawn), the viability, T/C (compound 0.0316 µM) is reported as 74.9% and 85.4% and 74.1%, the viability, T/C (compound 0.1 µM) is reported as 37.6% and 48.4% and 42% and the viability, T/C (compound 0.316 µM) is reported as 24.5% and 38.1% and 20.7%. The viability, T/C (compound 1 µM) was 23.8% and 31.2% and 18.5%, the viability, T/C (compound 3.16 µM) was 16.5% (2×) and 24.5% and the viability, T/C (compound 10 µM) was 15.4% and 24.8% and 17%. For the same compound, the IC50 (curve of compound) was 69.3 nM and 108 nM and 75.1 nM.
For `Cc1cccc(N(C)C(=O)C2C(O)CCN2c2nc(C)cc(C(F)(F)F)c2C#N)c1` (stereo not drawn) + Cc1cnc(CNC(=O)c2c(=O)c3ccc(N4CCCN(C)CC4)nc3n3c2sc2ccccc23)cn1, the IC50 [1] was > 10000 nM, the IC50 [2] was > 10000 nM and the IC50 [3] was > 10000 nM. The IC50 [4] was < 31.6 nM, the IC50 [5] was < 31.6 nM and the IC50 [6] was < 31.6 nM. It also gave a viability, T/C [7] of 104%, a viability, T/C [8] of 86.5% and a viability, T/C [9] of 85%. For the same compound, the viability, T/C [10] was 88.9%, the viability, T/C [11] was 88% and the viability, T/C [12] was 95.4%. It also gave a viability, T/C [13] of 63.1%, a viability, T/C [14] of 61.9% and a viability, T/C [15] of 78.3%. For the same compound, the viability, T/C [16] was 64.9%, the viability, T/C [17] was 75.6% and the viability, T/C [18] was 66.5%. It also gave a viability, T/C [19] of 61%, a viability, T/C [20] of 62.7% and a viability, T/C [21] of 57.4%. For the same compound, the viability, T/C [22] was 58.6%, the viability, T/C [23] was 59.5% and the viability, T/C [24] was 61.3%. It also gave a viability, T/C [25] of 45.5%, a viability, T/C [26] of 47.5% and a viability, T/C [27] of 48.6%. It also gave a viability, T/C [28] of 45.4%, a viability, T/C [29] of 49.6% and a viability, T/C [30] of 49.4%. The viability, T/C [31] was 39.2%, the viability, T/C [32] was 41.1% and the viability, T/C [33] was 41.8%. For the same compound, the viability, T/C [34] was 42.5%, the viability, T/C [35] was 41.2% and the viability, T/C [36] was 46.9%. For the same compound, the viability, T/C [37] was 11%, the viability, T/C [38] was 11.9% and the viability, T/C [39] was 33.3%. It also gave a viability, T/C [40] of 30.9%, a viability, T/C [41] of 25% and a viability, T/C [42] of 0.29%.
For `CC(=O)O[C@H]1C(=O)[C@@]2(C)[C@H]([C@H](OC(=O)c3ccccc3)[C@]3(O)C[C@H](OC(=O)[C@H](O)[C@@H](NC(=O)c4ccccc4)c4ccccc4)C(C)=C1C3(C)C)[C@]1(OC(C)=O)CO[C@@H]1C[C@@H]2O`, the viability, T/C (compound 0.0316 µM) was 29.9% and 31.4% and 22.4%, the viability, T/C (compound 0.1 µM) was 25.7% and 26.3% and 18.2% and the viability, T/C (compound 0.316 µM) was 25.7% and 20.8% and 15.6%. The viability, T/C (compound 1 µM) was 22.3% and 19.5% and 11.7%, the viability, T/C (compound 3.16 µM) was 22.6% and 20.4% and 11% and the viability, T/C (compound 10 µM) was 26.4% and 22.7% and 16.2%. The IC50 (curve of compound) was < 31.6 nM.
